System: 475296-252-R-J1-PDC spheroid viability
Assay: Anticancer human tumor 475296-252-R-J1-PDC patient-derived rectal carcinoma cell line growth inhibition [PI3K]
Conditions: spheroids with HUVEC and MSC; for IC50: curve of first compound; for viability, T/C: stronger effect = lower value
Outline: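 Spheroid viability read-out. Co-cultures contained the tumor line plus HUVEC and human MSCs. Each agent was paired with a PI3K inhibitor (inavolisib, alpelisib, duvelisib, copanlisib) across half-log dilutions starting at clinical Cmax, or at 10 microM when Cmax was unknown.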

[1] = second compound 0.0316 µM, first compound 0.0316 µM
[2] = second compound 0.0316 µM, first compound 0.1 µM
[3] = second compound 0.1 µM, first compound 0.0316 µM
[4] = second compound 0.1 µM, first compound 0.1 µM
[5] = second compound 0.316 µM, first compound 0.0316 µM
[6] = second compound 0.316 µM, first compound 0.1 µM
[7] = second compound 1 µM, first compound 0.0316 µM
[8] = second compound 1 µM, first compound 0.1 µM
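Also: spheroids exposed to agents for seven days before readout.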

With `CC1(C)CCC(CN2CCN(c3ccc(C(=O)NS(=O)(=O)c4ccc(NCC5CCOCC5)c([N+](=O)[O-])c4)c(Oc4cnc5[nH]ccc5c4)c3)CC2)=C(c2ccc(Cl)cc2)C1` + COc1c(OCCCN2CCOCC2)ccc2c3n(c(=NC(=O)c4cnc(N)nc4)nc12)CCN3 the IC50 (second compound 0.00316 µM) was over 10 µM, the IC50 (second compound 0.01 µM) was over 10 µM and the IC50 (second compound 0.0316 µM) was over 10 µM. For the same molecule, the IC50 (second compound 0.1 µM) was over 10 µM, the IC50 (second compound 0.316 µM) was over 10 µM and the IC50 (second compound 1 µM) was 5.62 µM. The viability, T/C (second compound 0.00316 µM, first compound 0.0316 µM) was 107%, the viability, T/C (second compound 0.00316 µM, first compound 0.1 µM) was 85.6% and the viability, T/C (second compound 0.00316 µM, first compound 0.316 µM) was 111%. It also gave a viability, T/C (second compound 0.00316 µM, first compound 1 µM) of 86.3%, a viability, T/C (second compound 0.00316 µM, first compound 3.16 µM) of 105% and a viability, T/C (second compound 0.00316 µM, first compound 10 µM) of 68.7%. It also gave a viability, T/C (second compound 0.01 µM, first compound 0.0316 µM) of 96.2%, a viability, T/C (second compound 0.01 µM, first compound 0.1 µM) of 97.9% and a viability, T/C (second compound 0.01 µM, first compound 0.316 µM) of 87.5%. It also gave a viability, T/C (second compound 0.01 µM, first compound 1 µM) of 104%, a viability, T/C (second compound 0.01 µM, first compound 3.16 µM) of 86% and a viability, T/C (second compound 0.01 µM, first compound 10 µM) of 67.3%. It also gave a viability, T/C [1] of 98.6%, a viability, T/C [2] of 85.8% and a viability, T/C (second compound 0.0316 µM, first compound 0.316 µM) of 82.5%. It also gave a viability, T/C (second compound 0.0316 µM, first compound 1 µM) of 93.5%, a viability, T/C (second compound 0.0316 µM, first compound 3.16 µM) of 79.8% and a viability, T/C (second compound 0.0316 µM, first compound 10 µM) of 64%. It also gave a viability, T/C [3] of 91.8%, a viability, T/C [4] of 80.7% and a viability, T/C (second compound 0.1 µM, first compound 0.316 µM) of 78%. For the same molecule, the viability, T/C (second compound 0.1 µM, first compound 1 µM) was 85%, the viability, T/C (second compound 0.1 µM, first compound 3.16 µM) was 70.6% and the viability, T/C (second compound 0.1 µM, first compound 10 µM) was 66.7%. The viability, T/C [5] was 67%, the viability, T/C [6] was 72.3% and the viability, T/C (second compound 0.316 µM, first compound 0.316 µM) was 63.7%. It also gave a viability, T/C (second compound 0.316 µM, first compound 1 µM) of 62%, a viability, T/C (second compound 0.316 µM, first compound 3.16 µM) of 66.8% and a viability, T/C (second compound 0.316 µM, first compound 10 µM) of 59.4%. It also gave a viability, T/C [7] of 63.2%, a viability, T/C [8] of 61.9% and a viability, T/C (second compound 1 µM, first compound 0.316 µM) of 58.8%. It also gave a viability, T/C (second compound 1 µM, first compound 1 µM) of 57.3%, a viability, T/C (second compound 1 µM, first compound 3.16 µM) of 62.4% and a viability, T/C (second compound 1 µM, first compound 10 µM) of 39.5%.
Molecule `Cn1ncnc1[C@H]1c2n[nH]c(=O)c3cc(F)cc(c23)N[C@@H]1c1ccc(F)cc1` + Cc1nc(NC(=O)N2CCCC2C(N)=O)sc1-c1ccnc(C(C)(C)C(F)(F)F)c1 has an IC50 (second compound 0.0316 µM) of over 0.1 µM, an IC50 (second compound 0.1 µM) of over 0.1 µM and an IC50 (second compound 0.316 µM) of over 0.1 µM. The IC50 (second compound 1 µM) was over 0.1 µM, the IC50 (second compound 3.16 µM) was over 0.1 µM and the IC50 (second compound 10 µM) was over 0.1 µM. For the same molecule, the viability, T/C (second compound 0.0316 µM, first compound 0.000316 µM) was 104%, the viability, T/C (second compound 0.0316 µM, first compound 0.001 µM) was 88.4% and the viability, T/C (second compound 0.0316 µM, first compound 0.00316 µM) was 106%. It also gave a viability, T/C (second compound 0.0316 µM, first compound 0.01 µM) of 87.1%, a viability, T/C [1] of 98.8% and a viability, T/C [2] of 101%. The viability, T/C (second compound 0.1 µM, first compound 0.000316 µM) was 92%, the viability, T/C (second compound 0.1 µM, first compound 0.001 µM) was 87.1% and the viability, T/C (second compound 0.1 µM, first compound 0.00316 µM) was 94.7%. The viability, T/C (second compound 0.1 µM, first compound 0.01 µM) was 101%, the viability, T/C [3] was 110% and the viability, T/C [4] was 103%. For the same molecule, the viability, T/C (second compound 0.316 µM, first compound 0.000316 µM) was 89.7%, the viability, T/C (second compound 0.316 µM, first compound 0.001 µM) was 92.4% and the viability, T/C (second compound 0.316 µM, first compound 0.00316 µM) was 88.9%. The viability, T/C (second compound 0.316 µM, first compound 0.01 µM) was 99.6%, the viability, T/C [5] was 105% and the viability, T/C [6] was 90.8%. The viability, T/C (second compound 1 µM, first compound 0.000316 µM) was 91.3%, the viability, T/C (second compound 1 µM, first compound 0.001 µM) was 99.5% and the viability, T/C (second compound 1 µM, first compound 0.00316 µM) was 101%. For the same molecule, the viability, T/C (second compound 1 µM, first compound 0.01 µM) was 91.7%, the viability, T/C [7] was 92.6% and the viability, T/C [8] was 104%. The viability, T/C (second compound 3.16 µM, first compound 0.000316 µM) was 85.8%, the viability, T/C (second compound 3.16 µM, first compound 0.001 µM) was 90% and the viability, T/C (second compound 3.16 µM, first compound 0.00316 µM) was 91.5%. The viability, T/C (second compound 3.16 µM, first compound 0.01 µM) was 87.7%, the viability, T/C (second compound 3.16 µM, first compound 0.0316 µM) was 87.7% and the viability, T/C (second compound 3.16 µM, first compound 0.1 µM) was 88.6%. The viability, T/C (second compound 10 µM, first compound 0.000316 µM) was 91.7%, the viability, T/C (second compound 10 µM, first compound 0.001 µM) was 92.1% and the viability, T/C (second compound 10 µM, first compound 0.00316 µM) was 84.7%. The viability, T/C (second compound 10 µM, first compound 0.01 µM) was 83.3%, the viability, T/C (second compound 10 µM, first compound 0.0316 µM) was 91.3% and the viability, T/C (second compound 10 µM, first compound 0.1 µM) was 84.6%.
